Data set [1] in a line: Phase I toxicity evaluation (CALGB expanded toxicity criteria). In kind it is in vivo, human. Here is the method:
[…]. The detailed examples presented in the present application reflect treatment on 21 patients.
Significant gastrointestinal toxicity was first manifested at the second dose level (120 mg/m2). […] […]. […] Two of these cases were found at exploratory laparotomy to be due to progression of disease and one resolved after conservative therapy, but was likely due to progression of disease. […] In a few patients, however, high doses of ondansetron were required to achieve relief.
Toxicity assessment was done according to the CALGB expanded toxicity criteria. Patients who experienced>grade 2 diarrhea at any time while on study were begun on loperamide 4 mg p.o. followed by 2 mg p.o. after every stool up to a total dose of 16 mg/day. If loperamide was unsuccessful in controlling diarrhea, patients were begun on octreotide acetate 100-600 μg for 2-3 doses per day. Stool collections were also obtained to test for any co-existing infection. […]

For data set [2] the following is noted: cited from earlier work.

Data on one compound can be found in patent US5786344A, “Camptothecin drug combinations and methods with reduced side effects” (priority 1995, dated 1998).

Turning to `CCc1c2c(nc3ccc(OC(=O)N4CCC(N5CCCCC5)CC4)cc13)-c1cc3c(c(=O)n1C2)COC(=O)[C@]3(O)CC` [CPT-11, 7-ethyl-10-[4-(1-piperidino)-1-piperidino)carbonyloxycamptot hecin], the myelosuppression result in data set [1] (100 mg/m2) is listed as “not a significant toxicity”; in data set [1] (120 mg/m2), “dose-limiting in one patient”; in data set [1] (145 mg/m2, ameliorated by prophylactic G-CSF), “dose-limiting in two patients”. In addition, the diarrhea entry in data set [1] (100 mg/m^2) was “No diarrhea was observed”. In addition, the figures for the “patients developing grade 3-4 diarrhea” value in data set [1] (120 mg/m^2), in data set [1] (145 mg/m^2) and in data set [1] (175 mg/m^2) were 34%, 50% and 100%, respectively. In data set [1] (145 mg/m2 with G-CSF), the “neutropenia >grade 1” value is recorded as “No cases”. Also, the neutropenic fevers result in data set [1] (175 mg/m2, first two patients, despite prophylactic G-CSF) is given as “hospitalized with neutropenic fevers”; in data set [1] (Patients 13 and 16, 145 mg/m2, cycle 1), “hospitalized with neutropenic fevers”. The major toxicities result in data set [1] (100-175 mg/m2) was “myelosuppression, diarrhea, and abdominal cramping pain”. Moreover, in data set [1] (Patients 4 (120 mg/m2), 21 and 15 (145 mg/m2)), the abdominal cramping entry is listed as “grade 3 abdominal cramping”. In data set [1] (likely due to progression of disease), the small bowel obstructions result was “Three patients developed small bowel obstructions”. Moreover, the nausea and vomiting result in data set [1] (majority of patients, doses >120 mg/m2) was “grade 1-2 nausea and vomiting”. Besides, in data set [1] (other patients), the abdominal cramps entry is “Four other patients had mild (grade 1) abdominal cramps”. Moreover, the route of excretion result in data set [2] (animal studies) was “equally excreted into bile and urine”. The “dose eliminated in the urine” value in data set [2] (rats, % of CPT-11 dose) is reported as “about 20%”.
